Assay results as given in US20210107942A1, “TISSUE PROTECTIVE PEPTIDES AND PEPTIDE ANALOGS FOR PREVENTING AND TREATING DISEASES AND DISORDERS ASSOCIATED WITH TISSUE DAMAGE” (Araim Pharmaceuticals, Inc., priority 2013, published 2021).

Tests used:
[1] = test system: cancer cachexia, Yoshida hepatoma AH-130 cells; assay: Cachexia model (Yoshida hepatoma AH-130 inoculated rats); type: in vivo, Male Wistar Han rats; conditions: rat, daily 0.17 or 1.7 μg/kg/d, vs saline placebo
Method: Male Wistar Han rats aged 8 weeks with an approximate weight of 200 g were inoculated intraperitoneally with 10^8 Yoshida hepatoma. AH-130 cells. Body weight and body composition were assessed before tumor inoculation and on the day of sacrifice. Quality of life indicators (spontaneous activity, food and water intake) were measured on day 0 and on day 10/11. Tumor cells were counted at the last day of the study. Rats were treated daily with either (1) low dose (0.17 μg/kg/d) RYLLEAKEAENITTG (SEQ ID NO:1), (2) high dose (1.7 μg/kg/d) RYLLEAKEAENITTG (SEQ ID NO:1), or (3) or normal saline (placebo) (n=22). Body composition of animals was analyzed using an EchoMRI-700 (Echo Medical Systems, Houston, Tex., USA). The analysis of the body structures was based on Nuclear Magnetic Resonance. Spontaneous activity was measured by an infrared scanner over 24 hours using Supermex activity monitoring system (Muromachi Kikai Co., LTD., Tokyo, Japan).

[2] = test system: histamine induced wheal (edema by intradermal histamine injection); assay: Histamine induced wheal formation; type: in vivo, Sprague-Dawley rats; conditions: rat, 30 mcg/kg intravenously shortly after intradermal histamine, area at fifteen minutes, vs placebo; FIG. 2
Method: Under isofiurane anesthesia, 12 Sprague-Dawley rats' abdomens were shaved and depilated. Each rat was then injected intravenously (via internal jugular) with a dilute solution or Evans Blue (30 mg/ml in saline, 1 mg/kg bw). After 5 minutes, 6 small doses of histamine (histamine diphosphate, 20 microliters administered intradermally) in a rectangular pattern on each rat's abdomen. After fifteen minutes, when the wheal reaches its maximum size the wheal is photographed and the blister area was determined by digital planimetry. To test the efficacy of a peptide, RYLLEAKEAENITTG (SEQ ID NO:1) or placebo, was administered to the rats intravenously shortly after the histamine injection, at a dose of 30 mcg/kg.

sciatic nerve injury = assay: Sciatic nerve injury assay (static sciatic index from toe spread); type: in vivo, Sprague-Dawley rats; conditions: rat, 50 mcg/kg into the caudal vein after nerve stretch injury, toe splaying over next four days, vs PBS; FIG. 1
Method: RYLLEAKEAENITTG (SECS ID NO:1) was tested for tissue protective activity using a sciatic nerve injury assay, Sprague-Dawley rats (250-300 grams) (six per group, including control) were anesthetized using isoflurane. The rat was then placed on a homeothermic blanket to ensure that the core temperature of the rat was maintained at 35-37° C. during the operation. Core temperature was monitored via a rectal probe. The right sciatic nerve of the anesthetized rat was exposed at mid thigh through a quadriceps muscle dissection; a 2 cm incision with a 15 blade scalpel was made through the skin parallel and over the quadriceps muscle and the quadriceps muscle was cut to expose the sciatic nerve using a pair of dissecting scissors. […]
Over the next four days the rear toe splaying of the rats was determined by placing the rat in an acrylic tube with a diameter of 30 cm on the scanning surface of a digital scanner. […] From the scans, the Toe Spread (the distance between the ball of the first toe and the ball of the fifth toe) and the Intermediate Toe Spread (the distance between the ball of the second toe and the ball of the fourth toe were measured. The static sciatic index (SSI) was then computed in accordance with S. Erbayraktar et al., 2003, Proc. Natl. Acad Sci USA 100, 6741-6746 (hereby incorporated by reference in its entirety) and statistical analysis performed.

RYLLEAKEAENITTG (peptide that have tissue protective activity) [tissue protective peptide of 15 amino acids derived from erythropoietin, made by Fmoc solid phase synthesis]
loss of lean mass ([1]; EchoMRI, FIG. 3C): reduced loss of lean mass
physical activity (spontaneous activity) ([1]; infrared scanner over 24 hours, FIG. 3D): increased physical activity
weight loss ([1]; FIG. 3A): reduced weight loss
epididymal fat ([1]; FIG. 3B): preserved epididymal fat
wheal area [2]: significantly reduced
sciatic nerve injury (static sciatic index, SSI) (sciatic nerve injury): reduces sciatic nerve injury
